# Data taken from patent US9028845B2, “Chimeric immunomodulatory compounds and methods of using the same-IV” (Dynavax Technologies Corporation, priority 2001, dated 2015).
# Marks after values point to notes of the source that are not given here.
# What was measured:
# [1] = system: hepatitis B surface antigen (HBsAg); details: in vivo
# mouse lung = assay: Induction of immune-associated genes in the mouse lung after intranasal treatment (quantitative PCR); format: in vivo, BALB/c mice; details: 20 ug intranasal, 6 hrs
# Description: The genes evaluated included genes encoding cytokines, chemokines, cell surface molecules, transcription factors, metalloproteases, and other molecules. The study was performed at Northview Pacific Laboratories (Hercules, Calif.) with 6-8 week old female BALB/c mice from Jackson Labs (Bar Harbor, Me.). […] Therefore, at 6 hrs the lungs were harvested and snap-frozen in liquid nitrogen and stored at −80° C. for later use. Total RNA was isolated using RNeasy mini kits (Qiagen Inc., Valencia, Calif.). The RNA samples were DNAse-treated (Roche Diagnostics, Mannheim, Germany) and converted into cDNA using Superscript II Rnase H-Reverse Transcriptase (Invitrogen, Rockville Md.) as described in Scheerens et al., 2001, Eur. J. of Immunology 31:1465-74. The cDNA samples were pooled per group and in each pooled sample the expression of mRNA of 75 genes was measured using real-time quantitative PCR (ABI Prism 5700, Perkin Elmer Applied Biosystems) and syber green (Qiagen Inc.). In addition to the genes of interest, in each sample the mRNA expression of a housekeeping gene was measured (HPRT or ubiquitin). In order to correct for the amount of RNA in each sample, all data were calculated relative to the expression of the housekeeping gene.
# human PBMCs = assay: Human PBMC cytokine response assay (IFN-γ and IFN-α in cell-free medium by ELISA), with or without cPLGA; format: cell-based;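 as to IFN-α (pg/ml) mean: 20 µg/mL compound for 24 hours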;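 as to IFN-γ (pg/ml) mean: 20 µg/mL compound for 24 hours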
# PBMCs = assay: Human PBMC proliferation assay (3H-thymidine incorporation); format: cell-based; details: Experiment A; for mean cpm: 2 μg/ml
# CD19+ B cells = assay: Human B cell proliferation assay (3H-thymidine incorporation); details: 2 μg/ml; for cpm1 / cpm2 / cpm3 / mean cpm / mean of both: B cells
# mice = assay: Serum cytokines (IL-12 p40, IL-6, TNF-α) after subcutaneous injection in mice; format: in vivo; details: 20 ug subcutaneous, blood 2 hours later
# In short: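 Blood was taken 2 h after subcutaneous injection. LPS positive-control mice were dosed intraperitoneally and bled at 1.5 h, at the peak of TNF-α. Sera were stored at −80° C and TNF-α, IL-6 and IL-12 were measured by immunoassay kits or antibody pairs in duplicate.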
# [2] = Water solubility of spacer precursor (dialcohol form); format: physicochemical; details: tested as dialcohol precursor of the dodecyl spacer
# From the text: Thus, the definition of spacers excludes microcarriers or nanocarriers. […] The form of the spacer moiety used for testing its water solubility is generally its most closely related unactivated and unprotected spacer precursor molecule. For example, C-19 contains a spacer moiety including a dodecyl group with phosphorothioate diester linkages at the C-1 and C-12 positions, thereby connecting the spacer moiety to the nucleic acid moieties. […] These higher water solubility spacers include, without limitation, propane 1,3 diol; glycerol; butane-1,4-diol; pentane-1,5-diol; hexane-1,6-diol; triethylene glycol, tetraethylene glycol and HEG.
# [3] = donor 28066, 20 ug/ml, 24 h, + PLGA = premixed with 100 μg/ml cPLGA
# [4] = donor 28067, 20 ug/ml, 24 h, + PLGA = premixed with 100 μg/ml cPLGA
# [5] = donor 28068, 20 ug/ml, 24 h, + PLGA = premixed with 100 μg/ml cPLGA
# [6] = mean of Donors 1-2, 20 μg/ml, 24 h
# [7] = mean of Donors 9-12, 20 μg/ml, 24 h
# [8] = mean of donors 28065-28068, 20 ug/ml, 24 h, + PLGA = premixed with 100 μg/ml cPLGA
# [9] = mean of donors 28185-28188, Table 15
compound,measurement,setting,value
5′-TCGTCGA-3′- C3-5′-ACGTTCG-3′-C3-5′-AGATGAT-3′ [Compound C-9],"Anti-HBsAg (mIU/ml) post-first, Mean",[1],68 mIU/ml
same,"Anti-HBsAg (mIU/ml) post-second, Mean",[1],4135** mIU/ml
same,"mRNA expression of IFN-alpha in the lung, in words",mouse lung,considerably higher mRNA expression of IFN-alpha
same,"mRNA expression of immune-associated genes in the lung, in words",mouse lung; vs P-7 treated mice,potently induce the expression of a variety of genes
same,IFN-α (pg/ml) Donor 1,"human PBMCs; Donor 1, 20 μg/ml, 24 h",142 pg/mL
same,IFN-γ (pg/ml) Donor 1,"human PBMCs; Donor 1, 20 μg/ml, 24 h",2157 pg/mL
same,IFN-α (pg/ml) Donor 2,"human PBMCs; Donor 2, 20 μg/ml, 24 h",0 pg/mL
same,IFN-γ (pg/ml) Donor 2,"human PBMCs; Donor 2, 20 μg/ml, 24 h",171 pg/mL
same,IFN-α Donor 9,"human PBMCs; Donor 9, 20 μg/ml, 24 h",8
same,IFN-γ Donor 9,"human PBMCs; Donor 9, 20 μg/ml, 24 h",134
same,IFN-α Donor 10,"human PBMCs; Donor 10, 20 μg/ml, 24 h",10
same,IFN-γ Donor 10,"human PBMCs; Donor 10, 20 μg/ml, 24 h",7
same,IFN-α Donor 11,"human PBMCs; Donor 11, 20 μg/ml, 24 h",1
same,IFN-γ Donor 11,"human PBMCs; Donor 11, 20 μg/ml, 24 h",56
same,IFN-α Donor 12,"human PBMCs; Donor 12, 20 μg/ml, 24 h",15
same,IFN-γ Donor 12,"human PBMCs; Donor 12, 20 μg/ml, 24 h",30
same,IFN-α,"human PBMCs; Table 9, donor 28089",10 pg/mL
same,IFN-γ,"human PBMCs; Table 9, donor 28089",12 pg/mL
same,IFN-α,"human PBMCs; Table 9, donor 28090",67 pg/mL
same,IFN-γ,"human PBMCs; Table 9, donor 28090",7 pg/mL
same,IFN-α mean,"human PBMCs; Table 9, mean of donors",39 pg/mL
same,IFN-γ mean,"human PBMCs; Table 9, mean of donors",10 pg/mL
same,IFN-α,"human PBMCs; Table 11, donor 28042",39 pg/mL
same,IFN-γ,"human PBMCs; Table 11, donor 28042",691 pg/mL
same,IFN-α,"human PBMCs; Table 11, donor 28043",0 pg/mL
same,IFN-γ,"human PBMCs; Table 11, donor 28043",268 pg/mL
same,IFN-α,"human PBMCs; Table 11, donor 28044",11 pg/mL
same,IFN-γ,"human PBMCs; Table 11, donor 28044",590 pg/mL
same,IFN-α,"human PBMCs; Table 11, donor 28045",64 pg/mL
same,IFN-γ,"human PBMCs; Table 11, donor 28045",1306 pg/mL
same,IFN-α mean,"human PBMCs; Table 11, mean of donors",29 pg/mL
same,IFN-γ mean,"human PBMCs; Table 11, mean of donors",714 pg/mL
same,IFN-α,"human PBMCs; Table 13, donor 28156",26 pg/mL
same,IFN-γ,"human PBMCs; Table 13, donor 28156",1162 pg/mL
same,IFN-α,"human PBMCs; Table 13, donor 28157",142 pg/mL
same,IFN-γ,"human PBMCs; Table 13, donor 28157",729 pg/mL
same,IFN-α,"human PBMCs; Table 13, donor 28158",78 pg/mL
same,IFN-γ,"human PBMCs; Table 13, donor 28158",192 pg/mL
same,IFN-α,"human PBMCs; Table 13, donor 28159",20 pg/mL
same,IFN-γ,"human PBMCs; Table 13, donor 28159",329 pg/mL
same,IFN-α mean,"human PBMCs; Table 13, mean of donors",67 pg/mL
same,IFN-γ mean,"human PBMCs; Table 13, mean of donors",603 pg/mL
same,IFN-γ (pg/ml) 28065,"human PBMCs; donor 28065 (high background), 20 ug/ml, 24 h, + PLGA = premixed with 100 μg/ml cPLGA, 1000 = outside assay limits",1000 pg/mL
same,IFN-α (pg/ml) 28065,"human PBMCs; donor 28065, 20 ug/ml, 24 h, + PLGA = premixed with 100 μg/ml cPLGA",13 pg/mL
same,IFN-α (pg/ml) 28066,human PBMCs; [3],0 pg/mL
same,IFN-γ (pg/ml) 28066,human PBMCs; [3],8 pg/mL
same,IFN-α (pg/ml) 28067,human PBMCs; [4],22 pg/mL
same,IFN-γ (pg/ml) 28067,human PBMCs; [4],57 pg/mL
same,IFN-α (pg/ml) 28068,human PBMCs; [5],64 pg/mL
same,IFN-γ (pg/ml) 28068,human PBMCs; [5],510 pg/mL
same,IFN-a,"human PBMCs; donor 28185, Table 15",25 pg/mL
same,IFN-g,"human PBMCs; donor 28185, Table 15",189 pg/mL
same,IFN-a,"human PBMCs; donor 28186, Table 15",16 pg/mL
same,IFN-g,"human PBMCs; donor 28186, Table 15",24 pg/mL
same,IFN-a,"human PBMCs; donor 28187, Table 15",4 pg/mL
same,IFN-g,"human PBMCs; donor 28187, Table 15",95 pg/mL
same,IFN-a,"human PBMCs; donor 28188, Table 15",146 pg/mL
same,IFN-g,"human PBMCs; donor 28188, Table 15",11 pg/mL
same,IFN-α (pg/ml) mean,human PBMCs; [6],71 pg/mL
same,IFN-γ (pg/ml) mean,human PBMCs; [6],1164 pg/mL
same,IFN-α mean,human PBMCs; [7],8
same,IFN-γ mean,human PBMCs; [7],56
same,IFN-α (pg/ml) mean,human PBMCs; [8],25 pg/mL
same,IFN-γ (pg/ml) mean,human PBMCs; [8],394 pg/mL
same,IFN-a (pg/ml) mean,human PBMCs; [9],48 pg/mL
same,IFN-g (pg/ml) mean,human PBMCs; [9],80 pg/mL
same,IFN-a (pg/ml) ×2,"human PBMCs; mean ×2, Table 15",95 pg/mL
same,IFN-g (pg/ml) ×4,"human PBMCs; mean ×4, Table 15",319 pg/mL
same,cpm1,"PBMCs; Donor 146, 2 μg/ml",55348 cpm
same,cpm2,"PBMCs; Donor 146, 2 μg/ml",24857 cpm
same,cpm3,"PBMCs; Donor 146, 2 μg/ml",39953 cpm
same,mean cpm,PBMCs; Donor 146 mean,40053 cpm
same,cpm1,"PBMCs; Donor 147, 2 μg/ml",88106 cpm
same,cpm2,"PBMCs; Donor 147, 2 μg/ml",65413 cpm
same,cpm3,"PBMCs; Donor 147, 2 μg/ml",90665 cpm
same,mean cpm,PBMCs; Donor 147 mean,81395 cpm
same,mean of both,"PBMCs; mean of Donors 146 and 147, 2 μg/ml",60724 cpm
same,"B cell proliferation, in words",CD19+ B cells; 48 h plus 8 h 3H-thymidine pulse,cause B cells to proliferate
same,cpm1,"CD19+ B cells; Donor 146, Experiment A",35365 cpm
same,cpm2,"CD19+ B cells; Donor 146, Experiment A",42705 cpm
same,cpm3,"CD19+ B cells; Donor 146, Experiment A",45231 cpm
same,mean cpm,"CD19+ B cells; Donor 146 mean, Experiment A",41100 cpm
same,cpm1,"CD19+ B cells; Donor 147, Experiment A",55543 cpm
same,cpm2,"CD19+ B cells; Donor 147, Experiment A",49035 cpm
same,cpm3,"CD19+ B cells; Donor 147, Experiment A",44985 cpm
same,mean cpm,"CD19+ B cells; Donor 147 mean, Experiment A",49854 cpm
same,cpm1,"CD19+ B cells; donor 121, Experiment B",21938 cpm
same,cpm2,"CD19+ B cells; donor 121, Experiment B",35400 cpm
same,cpm3,"CD19+ B cells; donor 121, Experiment B",23877 cpm
same,mean cpm,"CD19+ B cells; donor 121 mean, Experiment B",27072 cpm
same,cpm1,"CD19+ B cells; donor 194, Experiment B",13660 cpm
same,cpm2,"CD19+ B cells; donor 194, Experiment B",16717 cpm
same,cpm3,"CD19+ B cells; donor 194, Experiment B",17866 cpm
same,mean cpm,"CD19+ B cells; donor 194 mean, Experiment B",16081 cpm
same,mean of both,"CD19+ B cells; mean of Donors 146 and 147, Experiment A",45477 cpm
same,mean of both,"CD19+ B cells; mean of donors 121 and 194, Experiment B",21576 cpm
same,"induction of serum IL-12 p40, IL-6 and TNF-α, in words",mice,"induced IL-12 p40, IL-6, and TNF-α"
"OCCCCCCCCCCCCO [1,12-dihydroxydodecane]",solubility,[2],< 5000 µg/mL
